Assay results published in US20230330089A1, “COVID PREVENTION AND TREATMENT USING AN INTEGRIN INHIBITOR” (priority 2022, published 2023).

Tested on: SARS-CoV-2 pseudovirus variants
Format: cell-based

| SMILES | inhibition of Beta and Delta variant pseudovirus infection | inhibition of D614G pseudovirus infection | inhibition of D614G pseudovirus infection, single agent vs positive control | inhibition of D614G, Delta and Omicron pseudovirus infection | inhibition of Omicron and Delta pseudovirus infection compared with other variants | inhibition of infection by D614, D614G, N501Y, E484K, N+E, NEK, R685A pseudovirus variants |
| --- | --- | --- | --- | --- | --- | --- |
| COc1ccc(S(=O)(=O)N[C@@H](CNc2nc(C)nc(N3CCC(c4ccc5c(n4)NCCC5)CC3)c2C)C(=O)O)cc1 [GLPG-0187] | most significant decrease in pseudovirus infection by the Delta variant | inhibited pseudovirus infection in a dose-dependent manner | inhibited pseudovirus infection | effectively blocked | more significantly than other variants | inhibition of viral infection of each variant |
| CNS(=O)(=O)Nc1nccc(Cc2c(C)c3ccc(Oc4ncccn4)cc3oc2=O)c1F [VS-6766] | – | – | inhibited pseudovirus infection | – | – | – |
